# How the values were obtained:
# Assay in all cases: relative viability (nuclei count vs DMSO), 5 days (fraction); higher = more cells survive
# [1] = compound: O=S(=O)(c1ccccc1)N(CC(F)(F)F)c1ccc(C(O)(C(F)(F)F)C(F)(F)F)cc1 + CC(=O)Nc1cccc(-n2c(=O)n(C3CC3)c(=O)c3c(Nc4ccc(I)cc4F)n(C)c(=O)c(C)c32)c1 [Trametinib] (partner 0.02 µM)
# How it was run: (§1)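 The day after seeding in 1536-well plates, lung cancer cell lines were treated by pin tool with a single drug, or with a fixed anchor-drug dose together with five library-drug doses (not always all listed) in √10 steps. After 5 days, a combined fix-and-stain solution (final 0.05% Triton X-100, 1% formaldehyde, 1 ug/ml Hoechst) was added. Nuclei counted on 4× images gave relative viability as treated counts over vehicle counts, reported as the median of duplicate plates.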
# RO-3306 + Luminespib = compound: C1=CC2=C(C=CC(=C2)C=C3C(=O)NC(=NCC4=CC=CS4)S3)N=C1 [RO-3306] + CCNC(=O)c1noc(-c2cc(C(C)C)c(O)cc2O)c1-c1ccc(CN2CCOCC2)cc1 [Luminespib] (partner 0.01 µM)
# How it was run: as §1
# [2] = compound: O=S(=O)(c1ccccc1)N(CC(F)(F)F)c1ccc(C(O)(C(F)(F)F)C(F)(F)F)cc1 + Nc1nc2[nH]cc(CCc3ccc(C(=O)N[C@@H](CCC(=O)O)C(=O)O)cc3)c2c(=O)[nH]1 [Pemetrexed] (partner 0.2 µM)
# How it was run: as §1
# RO-3306 + Bortezomib = compound: C1=CC2=C(C=CC(=C2)C=C3C(=O)NC(=NCC4=CC=CS4)S3)N=C1 [RO-3306] + CC(C)C[C@H](NC(=O)[C@H](Cc1ccccc1)NC(=O)c1cnccn1)B(O)O [Bortezomib] (partner 0.002 µM)
# How it was run: as §1
# [3] = compound: O=S(=O)(c1ccccc1)N(CC(F)(F)F)c1ccc(C(O)(C(F)(F)F)C(F)(F)F)cc1 + C[C@]1(O)C[C@@H](c2nc(-c3ccc4ccc(-c5ccccc5)nc4c3)c3c(N)nccn32)C1 [Linsitinib] (partner 1 µM)
# How it was run: as §1
cell line,measurement,setting,value
UMC-11,relative viability,[1]; first compound 0.8 µM,0.796
same,relative viability,[1]; first compound 2.53 µM,0.711
same,relative viability,[1]; first compound 8 µM,0.862
same,relative viability,RO-3306 + Luminespib; first compound 0.01 µM,0.955
same,relative viability,RO-3306 + Luminespib; first compound 0.03162 µM,0.908
same,relative viability,RO-3306 + Luminespib; first compound 0.1 µM,1.05
same,relative viability,RO-3306 + Luminespib; first compound 0.3162 µM,1.08
same,relative viability,RO-3306 + Luminespib; first compound 1 µM,1.06
same,relative viability,[2]; first compound 0.8 µM,0.786
same,relative viability,[2]; first compound 2.53 µM,0.736
same,relative viability,[2]; first compound 8 µM,0.852
same,relative viability,RO-3306 + Bortezomib; first compound 0.01 µM,1.22
same,relative viability,RO-3306 + Bortezomib; first compound 0.03162 µM,0.407
same,relative viability,RO-3306 + Bortezomib; first compound 0.1 µM,0.64
same,relative viability,RO-3306 + Bortezomib; first compound 0.3162 µM,0.689
same,relative viability,RO-3306 + Bortezomib; first compound 1 µM,0.538
same,relative viability,[3]; first compound 0.8 µM,1.13
same,relative viability,[3]; first compound 2.53 µM,1.08
same,relative viability,[3]; first compound 8 µM,1.13

# From the supplement of paper PMC10307832
